Assay [1] concerns myopia-induced mouse. The settings on record: 2% 4-PBA eye-dropped every day after myopia induction. Here is the method:
A solution of 2% sodium phenylbutyrate in PBS (4-PBA) was eye-dropped to both eyes of a myopia induced mouse once a day every day in the evening for 10 days after completing the myopia induction period corresponding to human adulthood. It is noted that administration schedule during the myopia induction period (LIM) and after completing the period is schematically illustrated in FIG. 11.
It was evaluated whether or not axial elongation is inhibited by eyedrop administration of 4-PBA after the myopia induction period (6 weeks old to 8 weeks old), namely, in a period, corresponding to adulthood in a human, when a posterior segment eye disorder is caused by scleral thinning (FIG. 11) differently from the eyedrop administration in the myopia induction period (3 weeks old to 6 weeks old) in a mouse model simulating myopia progression in childhood as described in Patent Literature 1.

Assay [2] relates to myopia-induced mouse. Nature of the assay: Intraperitoneal injection of 4-PBA or TUDCA during myopia induction in mouse: axial elongation and refraction (Test Example 3). The settings on record: 4-PBA 200 mg/kg/day intraperitoneal injection; 1st week and 3rd week of myopia induction (LIM). The method, then: Specifically, a myopia-induced mouse is produced as follows. It is noted that myopia induction, and measurement of an axial length and refraction were performed by methods similar to those described in Non Patent Literatures 6 and 7. First, a male C57BL6J mouse was put in a standard transparent cage under a 12/12 h light/dark cycle in a temperature controlled clean room. The animal was allowed to free access to standard feed and autoclaved tap water. A 3-week-old mouse immediately after weaning was anesthetized with a mixed anesthetic of three anesthetics, that is, Domitor (Nippon Zenyaku Kogyo Co., Ltd.), Butorphanol (Meiji Seika Pharma Co., Ltd.), and Midazolam (Sandoz K. K.), and the skull was exposed with scissors. As illustrated in FIG. 1(b), a post was provided to stand on the skull, and fixed with dental cements (Super-Bond, Sun Medical Company, Ltd.). The post was provided with a screw thread so that an adjustor described below could be fixed thereon with a nut.
For inducing myopia, a minus lens having a power of −30 diopters (D) (Rainbow Contact, RAINBOW OPTICAL LABORATORY CO., LTD.) was worn on the right eye (myopia-induced eye), and a lens having a power of 0 D or only a frame was worn as a control on the left eye (control eye). […] The protector used here was attached to be integral with the frame portion, but the protector needs not be integral with the lens as long as the lens is not damaged by the behavior of the mouse.
Sodium phenylbutyrate (Cayman Chemical, MI, USA) and tauroursodeoxycholic acid (Sigma Aldrich, Tokyo, Japan) were dissolved in PBS. STF080310 (Selleck Biotech, Tokyo, Japan) or 4μ8C (Selleck Biotech) of an IRE1 inhibitor, GSK2656157 (Selleck Biotech) or GSK2606414 (Selleck Biotech) of a PERK inhibitor, and Nelfinavir Mesylate hydrate (Tokyo Chemical Industry Co., Ltd.) or Ceapin-A7 (Sigma Aldrich) of an ATF6 inhibitor were dissolved in DMSO, and the resultant was diluted to 1:1000 with PBS to be used in an eyedrop test.
A solution of sodium phenylbutyrate in PBS (4-PBA; 200 mg/kg) or tauroursodeoxycholic acid (TUDCA; 100 mg/kg) was intraperitoneally injected (i.p.) every day during the myopia induction period.

With sodium phenylbutyrate [4-PBA], the “myopic refraction after completing the myopia induction” value in assay [1] is “tended to be inhibited”. Moreover, the “adulthood axial elongation after completing the myopia induction” value in assay [1] (1st and 3rd weeks) is on record as “tended to inhibit”. In assay [2], the axial elongation entry was “the axial elongation is inhibited” and the myopic refraction entry was “the myopic refraction is inhibited”.

For the origin of these results see patent publication US20240398736A1, “Eyedrops for Treating Scleral Thinning and Screening Method for Therapeutic Agent of Scleral Thinning” (Tsubota Laboratory, Inc., priority 2020, published 2024).
